No end group written: not given here.
How the values were obtained:
HepG2-2.2.15 cells = assay: Cytotoxicity in the HBV assay (dye uptake); format: cell-based; conditions: peptide 10 micrograms per ml
HIV-1IIIB = assay: HIV-1 antiviral assay (CPE reduction, MTS); format: cell-based; conditions: peptide 10 micrograms per ml, 6 days post-infection
CEM-SS cells = assay: Cytotoxicity in the HIV-1 assay (cell viability, MTS); conditions: peptide 10 micrograms per ml
MRC-5 cells = conditions: human, 6 days
[1] = tested on: hepatitis B virus (HBV) ayw strain; assay: HBV assay (secreted HBV DNA, TaqMan PCR); format: cell-based; conditions: HepG2-2.2.15; peptide 10 micrograms per ml; six days; HBV DNA in supernatant
[2] = Cytotoxicity in the HBV assay (dye uptake); format: cell-based; conditions: human, HepG2-2.2.15 cells, peptide 10 micrograms per ml, read-out: % Cell Viability
Pseudomonas aeruginosa = format: cell-based; conditions: 5 micrograms per ml
Streptococcus pneumoniae = format: cell-based; conditions: 5 micrograms per ml
A549 cells [3] = assay: Cell cycle assay (propidium iodide, FACS); format: cell-based, human; conditions: peptide 10 micrograms per ml, 24 hours
Source text: The cell cycle consists of four distinct phases: […]

[4] = tested on: Human Peripheral Blood Mononuclear Cells (PBMC); assay: B cell proliferation assay (SAC plus Interleukin-2, 3H-thymidine); format: cell-based; conditions: peptide 10 micrograms per ml, 3H-thymidine incorporation
RAW 264.7 cells = assay: Phagocytosis assay (Fluorescein-labeled Escherichia coli, flow cytometry); format: cell-based, mouse; conditions: peptide 10 micrograms per ml, 30 min preincubation, 60 min ingestion
A549 cells [5] = assay: Apoptosis induction assay (Annexin-5); format: cell-based, human; conditions: peptide 10 micrograms per ml, 24 hours
Source text: Human A549 cells (carcinomic human alveolar basal epithelial cells) were utilized in the experiments employing the Annexin-5 apoptosis assay.

A549 cells [6] = assay: Apoptosis prevention assay (C2 ceramide, Annexin-5); format: cell-based, human; conditions: 30 min pretreatment with peptide 10 micrograms per ml, then C2 ceramide
spleen cells = assay: Th1/Th2 cytokine profiling assay (Ovalbumin restimulation, CBA kit); format: cell-based, Balb/c mice; conditions: peptide 10 micrograms per ml, 72 hours
[7] = tested on: macrophages prepared from human PBMC; assay: TNF alpha production assay (LPS-stimulated macrophages, ELISA); format: cell-based; conditions: peptide 10 micrograms per ml, 30 min preincubation, lipopolysaccharide 200 ng/ml overnight
Source text: Not stimulated macrophages served as negative background control.

[8] = tested on: Primary Human endothelial cells (HUVEC); assay: Endothelial cell migration assay; format: cell-based; conditions: peptide 10 micrograms per ml, 22 hours
HUVEC = assay: Endothelial tube formation assay; format: cell-based, human; conditions: peptide 10 micrograms per ml, 20 hours
Source text: Positive control was vehicle only.

MRSA = conditions: 5 micrograms per ml
in vitro [9] = conditions: human, CEM-SS cells
in vitro [10] = conditions: human, MRC-5 cells
HCMV strain AD169 = assay: HCMV plaque reduction assay; conditions: MRC-5 cells; peptide 10 micrograms per ml; 7-10 days
[11] = tested on: Human Peripheral Blood Mononuclear Cells (PBMC); assay: T cell proliferation assay (PHA, 3H-thymidine); conditions: peptide 10 micrograms per ml, 3H-thymidine incorporation

Nc1ccn([C@@H]2CS[C@H](CO)O2)c(=O)n1 [3TC, Lamivudine, reference compound]
% Cell viability (HepG2-2.2.15 cells): 95.8%

Cc1cn([C@H]2C[C@H](N=[N+]=[N-])[C@@H](CO)O2)c(=O)[nH]c1=O [AZT, reference compound]
% CPE reduction in HIV-1 infected CEM-SS cells (HIV-1IIIB): 99% | % Cell viability (CEM-SS cells): 97%

Nc1nc(O)c2ncn(COC(CO)CO)c2n1 [Ganciclovir]
% Cell viability (MRC-5 cells): 100%

HPGSRIVLSLDVPIGLLQILLEQARARAAREQATTNARILARV-NH2 [Stresscopin-related peptide]
% CPE reduction in HIV-1 infected CEM-SS cells (HIV-1IIIB): 0.0% | % inhibition of HBV replication in HEP G2 cells [1]: 0.0% | viability at 144 h, 10 micrograms per ml [2]: 100% | % inhibition (Pseudomonas aeruginosa): 0.0% | % inhibition (Streptococcus pneumoniae): 0.0% | Cell cycle analysis G0/G1 (A549 cells [3]): 56.9 | Cell cycle analysis G2/M (A549 cells [3]): 9.7 | Cell cycle analysis S (A549 cells [3]): 33.4 | % of SAC/IL2 induced control [4]: 91.4% | % of control phagocytosis (RAW 264.7 cells): 131.4% | % of induction (A549 cells [5]): 1.2% | % prevention of ceramide induced apoptosis (A549 cells [6]): 0.0% | IFNγ spleen cells; TH1 response (% of control) (spleen cells): 105.6 % of control | IL-2 spleen cells (% of control) (spleen cells): 66.8 % of control | IL-4 spleen cells; TH2 response (% of control) (spleen cells): 68.9 % of control | IL-5 spleen cells; TH2 response (% of control) (spleen cells): 67.0 % of control | TNF-a spleen cells; TH1 response (% of control) (spleen cells): 125.6 % of control | % of LPS induction [7]: 117.0% | % inhibition of migration [8]: 15% | % inhibition of tube formation (HUVEC): 35% | % inhibition (MRSA): 0.0% | viability at 10 micrograms per ml (in vitro [9]): 100% | viability at 144 h, 10 micrograms per ml (in vitro [10]): 100% | % plaque reduction (HCMV strain AD169): 0.0% | % of PHA induced control [11]: 92.6%

Source: patent publication US20100204113A1, “USE OF STRESSCOPIN-RELATED PEPTIDE AS A THERAPEUTIC AGENT” (priority 2007, published 2010)
